Source: patent US20230278972A1, “SUBSTITUTED HALOALKYL SULFONANILIDE HERBICIDES” (FMC Corporation, priority 2020, published 2023)

Legend:
Type in all cases: in vivo
[1] = tested on: Ryegrass, Italian (Italian ryegrass, Lolium multiflorum); test: Test A1 preemergence, Ryegrass, Italian
Text: (§1) Seeds of plant species selected from, blackgrass (Alopecurus myosuroides), corn (Zea mays), Foxtail, Giant (giant foxtail, Setaria faberi), goosegrass (Eleusine indica), kochia (Bassia scoparia), Oat, Wild (wild oat, Avena fatua), Pigweed, Palmer (palmer amaranth, palmer pigweed, Amaranthus palmeri), ragweed (common ragweed, Ambrosia artemisiifolia), Ryegrass, Italian (Italian ryegrass, Lolium multiflorum), soybean (Glycine max), and wheat (Triticum aestivum) were planted into a blend of loam soil and sand and treated preemergence with a directed soil spray using test chemicals formulated in a non-phytotoxic solvent mixture which included a surfactant. At the same time, plants selected from these crop and weed species and also galium (catchweed bedstraw, Galium aparine) and horseweed (Erigeron canadensis) were planted in pots containing the same blend of loam soil and sand and treated with postemergence applications of test chemicals formulated in the same manner. Plants ranged in height from 2 to 10 cm and were in the one- to two-leaf stage for the postemergence treatment. […] A dash (-) response means no test result.

[2] = tested on: Pigweed, Palmer (palmer amaranth, palmer pigweed, Amaranthus palmeri); test: Test A1 preemergence, Pigweed, Palmer
Text: as §1

rice (Oryza sativa) = test: Test B1 flooded paddy test, rice; details: 250 g ai/ha, Flood, applied to paddy water, 2-leaf stage, visually evaluated after 10 to 14 days
Text: (§2) A dash (-) response means no test result.

[3] = tested on: goosegrass (Eleusine indica); test: Test A1 postemergence, goosegrass; details: Postemergence
Text: as §1

[4] = tested on: Oat, Wild (wild oat, Avena fatua); test: Test A1 preemergence, Oat, Wild
Text: as §1

soybean (Glycine max) [5] = test: Test A1 postemergence, soybean; details: Postemergence
Text: as §1

[6] = tested on: Oat, Wild (wild oat, Avena fatua); test: Test A1 postemergence, Oat, Wild; details: Postemergence
Text: as §1

corn (Zea mays) [7] = test: Test A1 preemergence, corn
Text: as §1

[8] = tested on: ragweed (common ragweed, Ambrosia artemisiifolia); test: Test A1 preemergence, ragweed
Text: as §1

[9] = tested on: ragweed (common ragweed, Ambrosia artemisiifolia); test: Test A1 postemergence, ragweed; details: Postemergence
Text: as §1

[10] = tested on: blackgrass (Alopecurus myosuroides); test: Test A1 postemergence, blackgrass; details: Postemergence, 0 to 100 scale (0 no effect, 100 complete control)
Text: as §1

[11] = tested on: ducksalad (Heteranthera limosa); test: Test B1 flooded paddy test, ducksalad; details: 250 g ai/ha, Flood, applied to paddy water, 2-leaf stage, visually evaluated after 10 to 14 days
Text: as §2

soybean (Glycine max) [12] = test: Test A1 preemergence, soybean
Text: as §1

[13] = tested on: wheat (Triticum aestivum); test: Test A1 postemergence, wheat; details: Postemergence
Text: as §1

[14] = tested on: Foxtail, Giant (giant foxtail, Setaria faberi); test: Test A1 preemergence, Foxtail, Giant
Text: as §1

[15] = tested on: Ryegrass, Italian (Italian ryegrass, Lolium multiflorum); test: Test A1 postemergence, Ryegrass, Italian; details: Postemergence
Text: as §1

[16] = tested on: goosegrass (Eleusine indica); test: Test A1 preemergence, goosegrass
Text: as §1

[17] = tested on: galium (catchweed bedstraw, Galium aparine); test: Test A1 postemergence, galium; details: Postemergence
Text: as §1

[18] = tested on: Pigweed, Palmer (palmer amaranth, palmer pigweed, Amaranthus palmeri); test: Test A1 postemergence, Pigweed, Palmer; details: Postemergence
Text: as §1

corn (Zea mays) [19] = test: Test A1 postemergence, corn; details: Postemergence
Text: as §1

[20] = tested on: Foxtail, Giant (giant foxtail, Setaria faberi); test: Test A1 postemergence, Foxtail, Giant; details: Postemergence
Text: as §1

[21] = tested on: barnyardgrass (Echinochloa crus-galli); test: Test B1 flooded paddy test, barnyardgrass; details: 250 g ai/ha, Flood, applied to paddy water, 2-leaf stage, visually evaluated after 10 to 14 days
Text: as §2

[22] = tested on: blackgrass (Alopecurus myosuroides); test: Test A1 preemergence, blackgrass
Text: as §1

kochia (Bassia scoparia) [23] = test: Test A1 postemergence, kochia; details: Postemergence
Text: as §1

kochia (Bassia scoparia) [24] = test: Test A1 preemergence, kochia
Text: as §1

[25] = tested on: wheat (Triticum aestivum); test: Test A1 preemergence, wheat
Text: as §1

[26] = 31 g ai/ha, 0 to 100 scale (0 no effect, 100 complete control)
[27] = 125 g ai/ha, 0 to 100 scale, 0 no effect, 100 complete control
[28] = 31 g ai/ha, 0 to 100 scale (0 no effect, 100 complete control), 10 days

Cc1cc(C)c(C2=NOC3(C)CCCC23)cc1NS(=O)(=O)C(F)(F)F (stereo not shown) [Compound 340]
10: Plant response rating, Rice (0 to 100 scale, 0 is no effect, 100 is complete control) (rice (Oryza sativa)) | Plant response rating, Ragweed [8, 26] | Plant response rating, Foxtail, Giant [20, 28]
20: Plant response rating, Oat, Wild ([6]; 125 g ai/ha, 0 to 100 scale) | Plant response rating, Blackgrass ([10]; 125 g ai/ha) | Plant response rating, Ryegrass, Italian ([15]; 125 g ai/ha, 0 to 100 scale) | Plant response rating, Corn (corn (Zea mays) [19]; [28]) | Plant response rating, Kochia (kochia (Bassia scoparia) [23]; [28]) | Plant response rating, Wheat [25, 26]
70: Plant response rating, Ragweed [9, 28] | Plant response rating, Wheat ([13]; 125 g ai/ha, 0 to 100 scale)
90: Plant response rating, Goosegrass ([3]; 125 g ai/ha, 0 to 100 scale) | Plant response rating, Oat, Wild [4, 27] | Plant response rating, Corn (corn (Zea mays) [7]; [27]) | Plant response rating, Ragweed [8, 27] | Plant response rating, Soybean (soybean (Glycine max) [12]; [27]) | Plant response rating, Blackgrass [22, 27] | Plant response rating, Wheat [25, 27]
45: Plant response rating, Ducksalad (0 to 100 scale, 0 is no effect, 100 is complete control) [11]
0: Plant response rating, Oat, Wild [4, 26] | Plant response rating, Oat, Wild [6, 28] | Plant response rating, Corn (corn (Zea mays) [7]; [26]) | Plant response rating, Blackgrass ([10]; 31 g ai/ha, 10 days) | Plant response rating, Ryegrass, Italian [15, 28] | Plant response rating, Pigweed, Palmer [18, 28]
30: Plant response rating, Pigweed, Palmer ([18]; 125 g ai/ha, 0 to 100 scale)
50: Plant response rating, Ryegrass, Italian [1, 26] | Plant response rating, Soybean (soybean (Glycine max) [5]; [28]) | Plant response rating, Wheat [13, 28] | Plant response rating, Foxtail, Giant [14, 26] | Plant response rating, Galium [17, 28] | Plant response rating, Corn (corn (Zea mays) [19]; 125 g ai/ha, 0 to 100 scale) | Plant response rating, Foxtail, Giant ([20]; 125 g ai/ha, 0 to 100 scale) | Plant response rating, Kochia (kochia (Bassia scoparia) [23]; 125 g ai/ha, 0 to 100 scale)
80: Plant response rating, Ragweed ([9]; 125 g ai/ha, 0 to 100 scale) | Plant response rating, Galium ([17]; 125 g ai/ha, 0 to 100 scale)
60: Plant response rating, Pigweed, Palmer [2, 26] | Plant response rating, Goosegrass [3, 28] | Plant response rating, Soybean (soybean (Glycine max) [5]; 125 g ai/ha, 0 to 100 scale) | Plant response rating, Blackgrass [22, 26] | Plant response rating, Kochia (kochia (Bassia scoparia) [24]; [27])
85: Plant response rating, Barnyardgrass (0 to 100 scale, 0 is no effect, 100 is complete control) [21]
100: Plant response rating, Ryegrass, Italian [1, 27] | Plant response rating, Pigweed, Palmer [2, 27] | Plant response rating, Foxtail, Giant [14, 27] | Plant response rating, Goosegrass [16, 26] | Plant response rating, Goosegrass [16, 27]
40: Plant response rating, Soybean (soybean (Glycine max) [12]; [26])

COCC1CC(c2cc(N(COC(=O)C(C)(C)C)S(=O)(=O)C(F)(F)F)c(C)cc2C)=NO1 (stereo not shown) [Compound 338]
60: Plant response rating, Kochia (kochia (Bassia scoparia) [23]; 125 g ai/ha, 0 to 100 scale)
90: Plant response rating, Foxtail, Giant [14, 27]
95: Plant response rating, Barnyardgrass (0 to 100 scale, 0 is no effect, 100 is complete control) [21]
80: Plant response rating, Foxtail, Giant ([20]; 125 g ai/ha, 0 to 100 scale) | Plant response rating, Wheat [25, 27]
50: Plant response rating, Corn (corn (Zea mays) [7]; [27]) | Plant response rating, Galium [17, 28] | Plant response rating, Galium ([17]; 125 g ai/ha, 0 to 100 scale)
30: Plant response rating, Ryegrass, Italian [1, 26] | Plant response rating, Ryegrass, Italian [1, 27] | Plant response rating, Ragweed [9, 28] | Plant response rating, Pigweed, Palmer ([18]; 125 g ai/ha, 0 to 100 scale) | Plant response rating, Corn (corn (Zea mays) [19]; 125 g ai/ha, 0 to 100 scale)
20: Plant response rating, Rice (0 to 100 scale, 0 is no effect, 100 is complete control) (rice (Oryza sativa)) | Plant response rating, Soybean (soybean (Glycine max) [12]; [27]) | Plant response rating, Wheat [13, 28]
100: Plant response rating, Goosegrass [16, 27]
40: Plant response rating, Pigweed, Palmer [2, 27] | Plant response rating, Soybean (soybean (Glycine max) [5]; 125 g ai/ha, 0 to 100 scale) | Plant response rating, Ragweed [8, 27] | Plant response rating, Ducksalad (0 to 100 scale, 0 is no effect, 100 is complete control) [11] | Plant response rating, Goosegrass [16, 26]
10: Plant response rating, Soybean (soybean (Glycine max) [5]; [28]) | Plant response rating, Oat, Wild ([6]; 125 g ai/ha, 0 to 100 scale) | Plant response rating, Corn (corn (Zea mays) [7]; [26]) | Plant response rating, Foxtail, Giant [14, 26] | Plant response rating, Ryegrass, Italian ([15]; 125 g ai/ha, 0 to 100 scale) | Plant response rating, Corn (corn (Zea mays) [19]; [28]) | Plant response rating, Foxtail, Giant [20, 28] | Plant response rating, Kochia (kochia (Bassia scoparia) [23]; [28]) | Plant response rating, Kochia (kochia (Bassia scoparia) [24]; [27])
70: Plant response rating, Goosegrass ([3]; 125 g ai/ha, 0 to 100 scale) | Plant response rating, Ragweed ([9]; 125 g ai/ha, 0 to 100 scale) | Plant response rating, Wheat ([13]; 125 g ai/ha, 0 to 100 scale)
0: Plant response rating, Pigweed, Palmer [2, 26] | Plant response rating, Goosegrass [3, 28] | Plant response rating, Oat, Wild [4, 26] | Plant response rating, Oat, Wild [4, 27] | Plant response rating, Oat, Wild [6, 28] | Plant response rating, Ragweed [8, 26] | Plant response rating, Blackgrass ([10]; 31 g ai/ha, 10 days) | Plant response rating, Blackgrass ([10]; 125 g ai/ha) | Plant response rating, Soybean (soybean (Glycine max) [12]; [26]) | Plant response rating, Ryegrass, Italian [15, 28] | Plant response rating, Pigweed, Palmer [18, 28] | Plant response rating, Blackgrass [22, 26] | Plant response rating, Blackgrass [22, 27] | Plant response rating, Kochia (kochia (Bassia scoparia) [24]; [26]) | Plant response rating, Wheat [25, 26]
